The nature of test [1]: Selectivity index, ratio of IC50 for african green monkey Vero cells to MIC for Mycobacterium tuberculosis H37Rv. The test is classed as functional.
In test [2] the test system is Mycobacterium tuberculosis. Put plainly: Antimicrobial activity against Mycobacterium tuberculosis H37Rv by microplate alamar blue assay. The test is classed as functional. (In general: Alamar Blue is a resazurin reagent that responds to reducing activity.)
Test [3] relates to Mycobacterium tuberculosis. Put plainly: Antimicrobial activity against Mycobacterium tuberculosis H37Rv at 6.25 ug/ml by microplate alamar blue assay. Type of test: functional.
The next test relates to Vero. Put plainly: Cytotoxicity against african green monkey Vero cells after 72 hrs by MTT assay. The test is classed as cell-based, Chlorocebus sabaeus. The conditions noted are these: Chlorocebus sabaeus, Vero, 72 h; read-out: IC50. (Tetrazolium dyes change colour on reduction, which living cells bring about.)

In brackets after ≈: the same amount, converted by molar mass.

The term MIC denotes the lowest concentration that inhibits growth of the organism. One may read the inhibition as how much of the control response was suppressed. One may read the IC50 as the concentration at which inhibition is half-maximal. On to `CCOC(=O)c1c(-c2ccccc2)[n+]([O-])c2cc(C)c(C)cc2[n+]1[O-]`, for which the Ratio in test [1] is on record as >1.6. The compound further displayed an MIC in test [2] of 6.25 µg/mL (≈ 18.5 µM). The same compound came in with an inhibition at 6.25 µg/mL in test [3] of 90%. Also, the IC50 in the test on Vero is > 10 µg/mL.
With `CCOC(=O)c1c(-c2ccc(Br)cc2)[n+]([O-])c2ccccc2[n+]1[O-]`, the Ratio in test [1] was determined as 15.69. In test [2], the MIC amounted to 0.39 µg/mL (≈ 1 µM). In test [3], this compound registered an inhibition at 6.25 µg/mL of 90%. The IC50 in the test on Vero came to 6.12 µg/mL (≈ 15.7 µM).
As to `CCOC(=O)c1c(-c2ccc(F)cc2)[n+]([O-])c2ccccc2[n+]1[O-]`, in test [1], the Ratio is listed as 22.82. Further, in test [2], inhibition of growth (MIC) required 0.39 µg/mL (≈ 1.19 µM). The same compound displayed an inhibition at 6.25 µg/mL in test [3] of 90%. Moreover, in the test with Vero, the IC50 amounted to 8.9 µg/mL (≈ 27.1 µM).
As for `CCOC(=O)c1c(-c2ccc(Cl)cc2)[n+]([O-])c2ccccc2[n+]1[O-]`, in test [1], the Ratio is 12.31. In addition, the lowest concentration to inhibit growth in test [2] (MIC) was 0.39 µg/mL (≈ 1.13 µM). Moreover, the inhibition at 6.25 µg/mL in test [3] stood at 90%. Moreover, the IC50 in the test on Vero amounted to 4.8 µg/mL (≈ 13.9 µM).
Consider `CCOC(=O)c1c(-c2ccc(C)cc2)[n+]([O-])c2ccccc2[n+]1[O-]`, for which, in test [1], the Ratio was determined as 14.47. This compound gave an MIC in test [2] of 0.78 µg/mL (≈ 2.4 µM). The same compound showed an inhibition at 6.25 µg/mL in test [3] of 90%. Further, the concentration for half-maximal inhibition (IC50) in the test with Vero amounted to 11.3 µg/mL (≈ 34.8 µM).
As for `CCOC(=O)c1c(-c2ccc(C(F)(F)F)cc2)[n+]([O-])c2ccccc2[n+]1[O-]`, in test [1], the Ratio is recorded as 1.44. Moreover, the minimal inhibitory concentration (MIC) in test [2] is 1.56 µg/mL (≈ 4.12 µM). The same compound came in with an inhibition at 6.25 µg/mL in test [3] of 90%. Also, in the test with Vero, the IC50 is 2.24 µg/mL (≈ 5.92 µM).
`CCOC(=O)c1c(-c2ccc([N+](=O)[O-])cc2)[n+]([O-])c2ccccc2[n+]1[O-]`: the Ratio in test [1] is 2.9. The compound further yielded an MIC in test [2] of 0.78 µg/mL (≈ 2.2 µM). The compound also displayed an inhibition at 6.25 µg/mL in test [3] of 90%. Also, the half-inhibitory concentration (IC50) in the test on Vero was 2.26 µg/mL (≈ 6.36 µM).
Consider `CCOC(=O)c1c(-c2ccccc2)[n+]([O-])c2cc(F)c(F)cc2[n+]1[O-]`, for which the Ratio in test [1] came to 0.24. Also, in test [2], 1.56 µg/mL (≈ 4.5 µM) was the least that counted as inhibitory (MIC). In addition, at 6.25 µg/mL the inhibition in test [3] was 90%. In the test on Vero, the IC50 came out at 0.38 µg/mL (≈ 1.1 µM).
For `CCOC(=O)c1c(-c2ccc(OC)cc2)[n+]([O-])c2ccccc2[n+]1[O-]`, the Ratio in test [1] was determined as 4.9. The MIC in test [2] came out at 1.56 µg/mL (≈ 4.58 µM). The compound also came in with an inhibition at 6.25 µg/mL in test [3] of 90%. For the same compound, in the test on Vero, the half-maximal inhibitory concentration (IC50) amounted to 7.65 µg/mL (≈ 22.5 µM).
As for `CO[C@H]1/C=C/O[C@@]2(C)Oc3c(C)c(O)c4c(O)c(c(/C=N/N5CCN(C)CC5)c(O)c4c3C2=O)NC(=O)/C(C)=C\C=C\[C@H](C)[C@H](O)[C@@H](C)[C@@H](O)[C@@H](C)[C@H](OC(C)=O)[C@@H]1C` [RIFAMPIN], the Ratio in test [1] is reported as >800. The same compound displayed an MIC in test [2] of 0.125 µg/mL (≈ 0.152 µM). The inhibition at 6.25 µg/mL in test [3] came to 90%. The IC50 in the test on Vero is > 100 µg/mL.
